Values joined by “and” are separate entries in the source; they are usually repeats but may differ in a detail not shown here. Equal entries are not always repeated. “Also recorded” adds a separate entry of the source. Where two headings read alike, the source gives them in different places.
Assays:
serum β-glucuronidase = molecular target: T1, serum β-glucuronidase (Rattus norvegicus, UniProt P06760); test: in vivo; assay type: in vivo
T1 sequence (P06760 23-648): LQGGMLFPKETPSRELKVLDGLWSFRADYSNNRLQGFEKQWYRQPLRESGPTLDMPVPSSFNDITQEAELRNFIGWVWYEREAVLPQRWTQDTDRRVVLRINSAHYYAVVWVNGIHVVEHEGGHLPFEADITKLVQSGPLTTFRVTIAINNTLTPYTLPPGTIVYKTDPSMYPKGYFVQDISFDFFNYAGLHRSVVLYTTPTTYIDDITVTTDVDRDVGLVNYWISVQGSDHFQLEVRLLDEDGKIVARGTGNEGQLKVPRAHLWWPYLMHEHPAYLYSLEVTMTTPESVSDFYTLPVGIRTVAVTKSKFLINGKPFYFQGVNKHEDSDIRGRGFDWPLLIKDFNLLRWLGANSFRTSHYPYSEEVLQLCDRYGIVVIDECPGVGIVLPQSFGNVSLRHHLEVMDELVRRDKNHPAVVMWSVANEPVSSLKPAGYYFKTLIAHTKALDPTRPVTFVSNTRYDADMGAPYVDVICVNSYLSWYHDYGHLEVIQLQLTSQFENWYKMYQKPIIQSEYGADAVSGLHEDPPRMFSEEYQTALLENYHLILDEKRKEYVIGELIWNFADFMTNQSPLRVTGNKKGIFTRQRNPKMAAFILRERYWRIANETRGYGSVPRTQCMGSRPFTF
Protocol: GL was synthesized and microencapsulated to give sustained-release GL (EGL), by an established procedure used to microencapsulate ascorbic acid, as reported in Samejima, M. et al., Chem. Pharm. Bull., (Tokyo) 1982, 30:2894-2899. In this procedure, the GL as a fine powder is added to a stirred mixture of cyclohexane, polyisobutylene as coacervation-inducing agent and ethylcellulose as wall-forming material. The addition of GL is at 78° C., then phase separation is induced by lowering the temperature first to 40° C., then to 25° C. The microcapsules, which have thick walls, are washed with cyclohexane and dried. […] DAGDL, calcium D-glucarate (CGT), and potassium hydrogen D-glucarate (PGT) were synthesized. For comparison of efficacy of the inhibitors, 1,5 mmoles/kg (GL, EGL or DAGDL) or 4.5 mmoles/kg (CGT or PGT) of the inhibitor in 1.0 ml of sesame oil or vehicle only (controls) was administered to rats by stomach tube at zero time. Blood samples were obtained from different rats by cardiac puncture under ether anesthesia. The serum was prepared and assayed for β-glucuronidase activity using a commerical diagnostic kit sold by Sigma Chemical Company, St. Louis, MO. The assay is based on the hydrolysis of phenolphthalein-glucuronide and quantitation of phenolphthalein in alkaline medium at […]. For tests of anti-carcinogencity, the inhibitors were administered by stomach tube in 1.0 ml of sesame oil 30 minutes before and again at 2.5 hours after the carcinogen, for DAGDL, or 3 hours and 30 minutes before the carcinogen, for EGL, CGT, and PGT. The controls received sesame oil only by stomach tube.
At the time periods indicated above blood samples were obtained from rats under ether aneathesia by cardiac puncture, the serum was then prepared and assayed for β-glucuronidase activity using a commercial diagnostic kit sold by Sigma Chem. Co., St. Louis, MO.
For the inhibition of the initiation stage, CGT was given by gavage in two doses (4.5 mmoles/kg/dose) at 3 hours and again at 0.5 hours before carcinogen administration. […] The concentrations of CGT were incorporated into the powdered chow diet. The blood samples were obtained 10 days after the initiation of the CGT feeding.
DAGDL or GL (1.5 mmol/kg) in 1.0 ml of sesame oil, or vehicle only (controls) was administered to rats by stomach tube at zero time. […] The serum was prepared and assayed for β-glucuronidase activity using a commercial diagnostic kit sold by Sigma Chemical Company, St. Louis, MO. The assay is based on the hydrolysis of phenolphthalein-glucuronide and quantitation of phenolphtalein in alkaline medium at 550 nm.

60 kd oncofetal protein = test: effect of β-glucuronidase inhibitors on carcinogen induction of the 60 kd factor in plasma (cell-free RNA transport assay); assay type: in vivo, rat
[1] = test system: DMBA-induced mammary tumors; test: DMBA-induced mammary tumorigenesis, initiation, promotion and tumor regression; assay type: in vivo, rat
Protocol: Fifty day old female Sprague Dawley rats were utilized in these experiments. For induction of mammary tumors the rats received a single dose of 130 mg/kg of DMBA in sesame oil by gavage. Animals pretreated with CGT received 4.5 mmoles/kg of CGT in sesame oil at 3 hours and again at 0.5 hours before administration of the carcinogen. This protocol tests the inhibitory effect of CGT on the initiation phase. Alternatively, the rats were fed a standard chow diet supplemented with 10% CGT (w/w). To evaluate the effect of CGT on the promotion phase the rats were changed from the chow diet to the CGT supplemented diet two weeks after treatment with DMBA. One mole of glucarate is converted to approximately one-third of a mole of GL in an equilibrated aqueous solution.
The mammary tumors were measured with micrometer calipers. Two measurements were taken, the longest dimension and dimension at right angles to this parameter.
At this time, the rats were transferred from a chow diet to a chow diet supplemented with 10% CGT. This diet was continued until the termination of the experiment. […] Three groups each, with eighteen 50 day old rats, were given intragastrically a single dose of 20 mg of DMBA in 1.0 ml of sesame oil. One group ( -- ) received 4.5 mmoles/kg of CGT by stomach tube at 3 hours and again at 0.5 hours before DMBA. A second (control) group (.circle.O--O.circle.) received vehicle (i.e. sesame oil) only at the same two time periods. Both of these groups were then put on regular chow diet.

[2] = From the text: In the long term feeding experiments in which CGT intake was over an extended period of time, at the termination of the experiment the following organs were examined macroscopically and weighed: liver, kidneys, adrenals.
The adrenals were slightly (ca 20%) smaller by weight in the group receiving 10% CGT supplemented chow.

[3] = test system: Estrogen and Androgen Levels
[4] = carcinogen 7,12-Dimethylbenz[a]anthracene, 21 days post-treatment
[5] = +CGT, 50 day old Sprague Dawley female rats
[6] = second dose of DAGDL 3 hours after the initial dose, 2.5 hours after carcinogen
[7] = +DAGDL (1.5% DAGDL diet), female Sprague Dawley rats
[8] = +DAGDL (1.5% DAGDL diet), male Sprague Dawley rats

## O=C([O-])[C@@H](O)[C@@H](O)[C@H](O)[C@@H](O)C(=O)[O-].[Ca+2] [CGT, calcium D-glucarate]
Serum β-glucuronidase; rat, in vivo
  reduction of serum β-glucuronidase activity: 50% and 80%
  reduction of serum β-glucuronidase levels by dietary CGT: 50%
  time-course of serum β-glucuronidase inhibition: prolonged inhibition
60 kd oncofetal protein; carcinogen 1,2-Dimethylhydrazine, 21 days post-treatment
  Percent Inhibition of the induction of the 60 kd factor: 60%
60 kd oncofetal protein; carcinogen 1-Nitropyrene, 21 days post-treatment
  Percent Inhibition of the induction of the 60 kd factor: 50%
60 kd oncofetal protein; carcinogen 2-Naphthylamine, 21 days post-treatment
  Percent Inhibition of the induction of the 60 kd factor: 49%
60 kd oncofetal protein; carcinogen 3-Methylcholanthrene, 21 days post-treatment
  Percent Inhibition of the induction of the 60 kd factor: 43%
60 kd oncofetal protein; [4]
  Percent Inhibition of the induction of the 60 kd factor: 83%
60 kd oncofetal protein; carcinogen N-Nitrosodibutylamine, 21 days post-treatment
  Percent Inhibition of the induction of the 60 kd factor: 53% and > 50%
60 kd oncofetal protein; carcinogen N-Nitrosodiethylamine, 21 days post-treatment
  Percent Inhibition of the induction of the 60 kd factor: 41%
60 kd oncofetal protein; carcinogen N-Nitrosodimethylamine, 21 days post-treatment
  Percent Inhibition of the induction of the 60 kd factor: 76%
60 kd oncofetal protein; carcinogen N-Nitrosoethylurea, 21 days post-treatment
  Percent Inhibition of the induction of the 60 kd factor: 68%
60 kd oncofetal protein; carcinogen N-Nitrosomethylurea, 21 days post-treatment
  Percent Inhibition of the induction of the 60 kd factor: 69%
60 kd oncofetal protein; carcinogen Safrole, 21 days post-treatment
  Percent Inhibition of the induction of the 60 kd factor: 45%
60 kd oncofetal protein; rat, in vivo
  Percent Inhibition of the induction of the 60 kd factor: 86% and 70%
[1]; 10% CGT diet
  effect on DMBA-induced tumors which escape the anti-promoter effects: significant regression
  reduction of the overall tumor incidence due to tumor regression: 14%
[1]; 10% CGT diet from 2 weeks post-DMBA
  effect on promotion phase of DMBA-induced mammary carcinogenesis: significantly inhibits the promotion phase
[1]; 10% CGT diet from 2 weeks post-DMBA (promotion phase), by 28 weeks
  tumor induction as percent of that in the controls: 30%
[1]; 10% CGT diet, 16 wks (spread ± 0.57 on separate line)
  Average Tumor Volume: 2.82 cm^3
[1]; 10% CGT diet, 20 wks (spread ± 0.76 on separate line)
  Average Tumor Volume: 2.17 cm^3
[1]; 10% CGT diet, 24 wks (spread ± 0.87 on separate line)
  Average Tumor Volume: 1.87 cm^3
[1]; 10% CGT diet, 28 wks
  Average Tumor Volume: 1.20 ± 0.82 cm^3
[1]; 10% CGT diet, 32 wks
  Average Tumor Volume: 1.02 ± 0.77 cm^3
[1]; 10% CGT diet, average, between 18 and 28 days (so in the source)
  reduction in percentage of rats with tumors: 70%
[1]; 10% CGT supplemented diet beginning 2 weeks post-DMBA treatment
  overall tumor incidence: 33%
[1]; CGT diet supplemented group, essentially all rats with tumors
  tumors per rat in rats with tumors: only one tumor per rat
[2]; rat, in vivo
  decrease of adrenal weight: ~20%
  food intake and weight-gain compared with chow diet: essentially identical to those on chow diet
  liver and kidney weights compared with controls: essentially identical in weight
[3]; [5]
  17-Ketosteroids (urinary excretion): 13 μg/100 g body wt × 24 hrs
  Estradiol (serum): 39 pg/mL
[3]; CGT diet, female rats
  reduction of serum estradiol level: 24%
  reduction of urinary 17-ketosteroid level: 55%

## CC(=O)O[C@@H]1C(=O)O[C@H]2[C@@H]1OC(=O)[C@@H]2OC(C)=O [DAGDL, 2,5-di-O-acetyl-D-glucaro-1,4;6,3-dilactone]
Serum β-glucuronidase; 1.5 mmol/kg
  time to 50% inhibition of serum β-glucuronidase: ≤ 0.5 h
Serum β-glucuronidase; 1.5 mmol/kg, single dose
  time for which 50% inhibition or greater is maintained: approximately 3 hours
Serum β-glucuronidase; 1.5 mmoles/kg i.g., assayed 1 hour after administration
  reduction of serum β-glucuronidase activity: 80%
Serum β-glucuronidase; carcinogen co-administered
  effect of carcinogen co-administration on degree of β-glucuronidase inhibition: not influenced significantly
Serum β-glucuronidase; rat, 1.5 mmol/kg, within 0.5 hour of administration
  inhibition at 1500 µmol/kg: 50%
Serum β-glucuronidase; [6]
  duration of approximately 50% inhibition after second dose: up to 6 hours
  inhibition of β-glucuronidase after second dose: approximately 50%
Serum β-glucuronidase; single i.g. dose 1.5 mmoles/kg (GL, DAGDL, EGL)
  time-course of serum β-glucuronidase inhibition: marked and prolonged inhibition; also recorded: more prolonged inhibition
60 kd oncofetal protein; 504 h
  60 kd factor in plasma, MNU with inhibitor: 1.2 Units
60 kd oncofetal protein; carcinogen 2-Acetylaminofluorene, 21 days post-treatment
  Percent Inhibition of the induction of the 60 kd factor: 66%
60 kd oncofetal protein; [4]
  Percent Inhibition of the induction of the 60 kd factor: 77%
60 kd oncofetal protein; carcinogen Benzo[a]pyrene, 21 days post-treatment
  Percent Inhibition of the induction of the 60 kd factor: 76%
[2]; DAGDL supplemented chow
  decrease of adrenal weight: 20-30%
[3]; 1.5% DAGDL diet, male and female rats
  sex hormone levels: reduces sex hormone levels; also recorded: lower steady state level of steroid hormones
[3]; [7]
  17-Ketosteroids (urinary excretion): 12 μg/100 g body wt × 24 hrs
  Estradiol (serum): 140 pmol/L
[3]; [8]
  17-Ketosteroids (urinary excretion): 17 μg/100 g body wt × 24 hrs
  Testosterone (serum): 9 nmol/L
